According to patent US20260166162A1, “CARBON CHAIN SUBSTANCE FOR REGULATING TRANSMEMBRANE TRANSPORT AND FLUIDITY OF CELL MEMBRANES, AND PREPARATION AND USE THEREOF” (priority 2022, published 2026):
Values joined by “and” are separate entries in the source; they are usually repeats but may differ in a detail not shown here. Equal values may be shown once. Read-outs that look alike come from different tables or passages of the source.

Legend:
Neocopyovirus = type: in vivo; details: 1 mM; n=3
rabies pseudovirus = type: cell-based
293T cells = assay: Cellular phagocytosis of DiD-loaded lipid vesicles (nano-drugs) by 293T cells (Example II-51, Table II-29); type: cell-based; details: 293T cells pretreated 4 h, DiD lipid vesicles 2 h, n=3, untreated control 226.46 ± 1.26
[1] = tested on: SARS-CoV-2 pseudovirus (B.1.526.2); type: cell-based
[2] = tested on: HPV pseudovirus (HPV6-GFP); type: cell-based; details: 293FT cells pretreated 4 h, n=3
Hela cells = assay: Cell membrane fluidity (Laurdan fluorescence recovery) in Hela cells; type: cell-based
TNF-α = assay: Skin photoaging (UVB) in BALB/c nude mice, serum TNF-α (Example II-54, Table II-32); type: in vivo, mouse; details: UVB-irradiated BALB/c nude mice, 40 days
IL-1β = assay: Skin photoaging (UVB) in BALB/c nude mice, serum IL-1β (Example II-54, Table II-33); type: in vivo, mouse; details: serum, UVB-irradiated BALB/c nude mice, 40 days
IL-6 = assay: Skin photoaging (UVB) in BALB/c nude mice, serum IL-6 (Example II-54, Table II-34); type: in vivo, mouse; details: serum, UVB-irradiated BALB/c nude mice, 40 days

Molecule: Ascorbic acid-eicosapentaenoic acid
- Fluorescence intensity (Neocopyovirus): 2.9 ± 0.68

Molecule: CCC=CCC=CCC=CCC=CCC=CCCCC(=O)OCC(N)C(=O)O (stereo not drawn) [Serine-EPA]
- Fluorescence intensity (Neocopyovirus): 4.8 ± 0.96

Molecule: Glucose-oleic acid
- Inhibition rate (%) (rabies pseudovirus; 0.002 µM): 50.11 ± 3.11%
- Inhibition rate (%) (rabies pseudovirus; 0.005 µM): 65.69 ± 6.69%
- Inhibition rate (%) (rabies pseudovirus; 0.01 µM): 80.35 ± 2.06%
- Inhibition rate (%) (rabies pseudovirus; 0.05 µM): 72.37 ± 3.37%
- Inhibition rate (%) (rabies pseudovirus; 0.1 µM): 71.05 ± 2.54%
- Inhibition rate (%) (rabies pseudovirus; 1 µM): -14.84 ± 1.54%
- Inhibition rate (%) (rabies pseudovirus; 10 µM): -33.5 ± 2.54%
- Inhibition rate (%) (rabies pseudovirus; 50 µM): 70.04 ± 5.07%
- Inhibition rate (%) (rabies pseudovirus; 100 µM): 80.21 ± 5.30%
- Fluorescence intensity (293T cells; 2 nM): 102.16 ± 8.65
- Fluorescence intensity (293T cells; 5 nM): 92.37 ± 4.56
- Fluorescence intensity (293T cells; 10 nM): 65.99 ± 6.23
- Fluorescence intensity (293T cells; 100 nM): 71.02 ± 4.02
- Fluorescence intensity (293T cells; 1 uM): 436.71 ± 15.66
- Fluorescence intensity (293T cells; 10 uM): 216.29 ± 5.24
- Fluorescence intensity (293T cells; 50 uM): 42.89 ± 2.32
- Fluorescence intensity (293T cells; 100 uM): 26.41 ± 5.32

Molecule: Adenosine-erucic acid [Adenosine-C22-1]
- Inhibition rate (%) ([1]; 0.002 µM): 50.54 ± 1.57%
- Inhibition rate (%) ([1]; 0.005 µM): 60.66 ± 1.59%
- Inhibition rate (%) ([1]; 0.01 µM): 58.34 ± 1.25%
- Inhibition rate (%) ([1]; 0.05 µM): 57.33 ± 1.58%
- Inhibition rate (%) ([1]; 0.1 µM): 64.66 ± 8.23%
- Inhibition rate (%) ([1]; 1 µM): -22.83 ± 0.93%
- Inhibition rate (%) ([1]; 10 µM): -44.26 ± 1.26%
- Inhibition rate (%) ([1]; 50 µM): 81.44 ± 0.54%
- Inhibition rate (%) ([1]; 100 µM): 90.08 ± 1.21%
- Inhibition rate (%) ([2]; 2 nM): 80.11 ± 3.66%
- Inhibition rate (%) ([2]; 5 nM): 85.69 ± 4.23%
- Inhibition rate (%) ([2]; 10 nM): 90.35 ± 4.69%
- Inhibition rate (%) ([2]; 50 nM): 92.37 ± 3.35%
- Inhibition rate (%) ([2]; 100 nM): 94.75 ± 1.67%
- Inhibition rate (%) ([2]; 1 μM): 32.83 ± 2.37%
- Inhibition rate (%) ([2]; 10 μM): 54.26 ± 1.83%
- Inhibition rate (%) ([2]; 50 μM): 91.84 ± 3.95%
- Inhibition rate (%) ([2]; 100 μM, negative value = promotes infection): 94.11 ± 2.69%
- Fluorescence intensity (293T cells; 2 nM): 112.01 ± 8.24 and 99.55 ± 5.66
- Fluorescence intensity (293T cells; 5 nM): 89.09 ± 4.19 and 46.06 ± 5.06
- Fluorescence intensity (293T cells; 1 uM): 278.16 ± 8.15 and 299.00 ± 23.21
- Fluorescence intensity (293T cells; 10 uM): 326.69 ± 10.13 and 171.00 ± 14.23

Molecule: CCCCCCCC(=O)O [n-octanoic acid]
- Fluorescence recovery rate % (Hela cells; 2 nM, 20 s): 65.57%
- Fluorescence recovery rate % (Hela cells; 2 nM, 40 s): 66.78%
- Fluorescence recovery rate % (Hela cells; 2 nM, 60 s): 66.54%
- Fluorescence recovery rate % (Hela cells; 2 nM, 80 s): 67.22%
- Fluorescence recovery rate % (Hela cells; 5 nM, 20 s): 66.75%
- Fluorescence recovery rate % (Hela cells; 5 nM, 40 s): 67.05%
- Fluorescence recovery rate % (Hela cells; 5 nM, 60 s): 67.59%
- Fluorescence recovery rate % (Hela cells; 5 nM, 80 s): 66.98%
- Fluorescence recovery rate % (Hela cells; 10 nM, 20 s): 64.02%
- Fluorescence recovery rate % (Hela cells; 10 nM, 40 s): 65.23%
- Fluorescence recovery rate % (Hela cells; 10 nM, 60 s): 65.45%
- Fluorescence recovery rate % (Hela cells; 10 nM, 80 s): 66.51%
- Fluorescence recovery rate % (Hela cells; 50 nM, 20 s): 67.32%
- Fluorescence recovery rate % (Hela cells; 50 nM, 40 s): 67.94%
- Fluorescence recovery rate % (Hela cells; 50 nM, 60 s): 68.02%
- Fluorescence recovery rate % (Hela cells; 50 nM, 80 s): 68.65%
- Fluorescence recovery rate % (Hela cells; 50 μM, 20 s): 64.31%
- Fluorescence recovery rate % (Hela cells; 50 μM, 40 s): 69.09%
- Fluorescence recovery rate % (Hela cells; 50 μM, 60 s): 73.41%
- Fluorescence recovery rate % (Hela cells; 50 μM, 80 s): 78.32%
- Fluorescence recovery rate % (Hela cells; 100 μM, 20 s): 66.15%
- Fluorescence recovery rate % (Hela cells; 100 μM, 40 s): 71.58%
- Fluorescence recovery rate % (Hela cells; 100 μM, 60 s): 75.11%
- Fluorescence recovery rate % (Hela cells; 100 μM, 80 s): 79.84%
- Fluorescence intensity (Neocopyovirus): 5.8 ± 0.76
- Fluorescence intensity (293T cells; 2 nM): 157.30
- Fluorescence intensity (293T cells; 5 nM): 108.56
- Fluorescence intensity (293T cells; 10 nM): 83.70
- Fluorescence intensity (293T cells; 50 nM): 76.25
- Fluorescence intensity (293T cells; 100 nM): 106.35
- Fluorescence intensity (293T cells; 1 uM): 141.79
- Fluorescence intensity (293T cells; 10 uM): 124.85
- Fluorescence intensity (293T cells; 50 uM): 64.86
- Fluorescence intensity (293T cells; 100 uM): 36.35 ± 6.23

Molecule: CCC=CCC=CCC=CCCCCCCCC(=O)OCC(N)C(=O)O (stereo not drawn) [Ser-linolenic acid]
- TNF-α (TNF-α; 30 μM smeared): 51 pg/mL
- TNF-α (TNF-α; 50 μM smeared): 49 pg/mL
- TNF-α (TNF-α; 100 μM smeared): 47 pg/mL
- IL-1β (IL-1β; 30 μM smeared): 62 pg/mL
- IL-1β (IL-1β; 50 μM smeared): 53 pg/mL
- IL-1β (IL-1β; 100 μM smeared): 58 pg/mL
- IL-6 (IL-6; 30 μM smeared): 29 pg/mL
- IL-6 (IL-6; 50 μM smeared): 33 pg/mL
- IL-6 (IL-6; 100 μM smeared): 31 pg/mL

Molecule: CC/C=C\C/C=C\C/C=C\C/C=C\C/C=C\C/C=C\CCC(=O)OCC(O)C1OC(=O)C(O)=C1O (stereo not drawn) [Ascorbic Acid-DHA]
- Inhibition rate (%) (rabies pseudovirus; 2 nM, n=3): 51.40 ± 1.54%
- Inhibition rate (%) (rabies pseudovirus; 5 nM, n=3): 51.99 ± 3.99%
- Inhibition rate (%) (rabies pseudovirus; 10 nM, n=3): 64.84 ± 6.57%
- Inhibition rate (%) (rabies pseudovirus; 50 nM, n=3): 70.88 ± 4.22%
- Inhibition rate (%) (rabies pseudovirus; 100 nM, n=3): 79.06 ± 2.39%
- Inhibition rate (%) (rabies pseudovirus; 1 μM, n=3): 14.83 ± 4.26%
- Inhibition rate (%) (rabies pseudovirus; 10 μM, n=3): 34.88 ± 5.99%
- Inhibition rate (%) (rabies pseudovirus; 50 μM, n=3): 95.55 ± 6.98%
- Inhibition rate (%) (rabies pseudovirus; 100 μM, n=3): 99.08 ± 6.36%
- Fluorescence intensity (293T cells; 2 nM): 98.37 ± 7.89
- Fluorescence intensity (293T cells; 5 nM): 92.26 ± 8.23
- Fluorescence intensity (293T cells; 10 nM): 69.70 ± 4.55
- Fluorescence intensity (293T cells; 50 nM): 73.98 ± 5.36
- Fluorescence intensity (293T cells; 100 nM): 243.38 ± 11.00
- Fluorescence intensity (293T cells; 1 uM): 253.70 ± 10.23
- Fluorescence intensity (293T cells; 10 uM): 58.97 ± 1.55
- Fluorescence intensity (293T cells; 50 uM): 39.02 ± 1.03
- Fluorescence intensity (293T cells; 100 uM): 19.86 ± 0.23

Molecule: O=C(O)CCCCCCC(=O)O [octanedioic acid]
- Fluorescence recovery rate % (Hela cells; 2 nM, 20 s): 63.58%
- Fluorescence recovery rate % (Hela cells; 2 nM, 40 s): 64.25%
- Fluorescence recovery rate % (Hela cells; 2 nM, 60 s): 65.77%
- Fluorescence recovery rate % (Hela cells; 2 nM, 80 s): 65.12%
- Fluorescence recovery rate % (Hela cells; 5 nM, 20 s): 64.56%
- Fluorescence recovery rate % (Hela cells; 5 nM, 40 s): 64.88%
- Fluorescence recovery rate % (Hela cells; 5 nM, 60 s): 64.78%
- Fluorescence recovery rate % (Hela cells; 5 nM, 80 s): 65.09%
- Fluorescence recovery rate % (Hela cells; 10 nM, 20 s): 63.99%
- Fluorescence recovery rate % (Hela cells; 10 nM, 40 s): 64.23%
- Fluorescence recovery rate % (Hela cells; 10 nM, 60 s): 64.45%
- Fluorescence recovery rate % (Hela cells; 10 nM, 80 s): 64.66%
- Fluorescence recovery rate % (Hela cells; 50 nM, 20 s): 66.09%
- Fluorescence recovery rate % (Hela cells; 50 nM, 40 s): 66.42%
- Fluorescence recovery rate % (Hela cells; 50 nM, 60 s): 66.89%
- Fluorescence recovery rate % (Hela cells; 50 nM, 80 s): 67.94%
- Fluorescence recovery rate % (Hela cells; 50 μM, 20 s): 64.41%
- Fluorescence recovery rate % (Hela cells; 50 μM, 40 s): 70.05%
- Fluorescence recovery rate % (Hela cells; 50 μM, 60 s): 74.65%
- Fluorescence recovery rate % (Hela cells; 50 μM, 80 s): 80.36%
- Fluorescence recovery rate % (Hela cells; 100 μM, 20 s): 65.77%
- Fluorescence recovery rate % (Hela cells; 100 μM, 40 s): 71.36%
- Fluorescence recovery rate % (Hela cells; 100 μM, 60 s): 76.81%
- Fluorescence recovery rate % (Hela cells; 100 μM, 80 s): 79.79%
- Fluorescence intensity (Neocopyovirus): 2.9 ± 0.22
- Fluorescence intensity (293T cells; 2 nM): 108.61 ± 5.68
- Fluorescence intensity (293T cells; 5 nM): 68.71 ± 4.36
- Fluorescence intensity (293T cells; 10 nM): 68.98 ± 8.56
- Fluorescence intensity (293T cells; 50 nM): 50.66 ± 5.66
- Fluorescence intensity (293T cells; 100 nM): 44.30 ± 6.35
- Fluorescence intensity (293T cells; 1 uM): 215.30 ± 5.36
- Fluorescence intensity (293T cells; 10 uM): 349.34 ± 9.48
- Fluorescence intensity (293T cells; 50 uM): 21.83 ± 1.85
- Fluorescence intensity (293T cells; 100 uM): 2.79 ± 0.22

Molecule: CCCCCC=CCC=CCCCCCCCC(=O)OCC(N)C(=O)O (stereo not drawn) [Serine-LA]
- Inhibition rate (%) ([1]; 2 nM, n=3): 60.54 ± 5.59%
- Inhibition rate (%) ([1]; 5 nM, n=3): 79.66 ± 5.97%
- Inhibition rate (%) ([1]; 10 nM, n=3): 78.34 ± 4.87%
- Inhibition rate (%) ([1]; 50 nM, n=3): 77.33 ± 4.56%
- Inhibition rate (%) ([1]; 100 nM, n=3): 73.66 ± 1.33%
- Inhibition rate (%) ([1]; 1 μM, n=3): -102.33 ± 4.36%
- Inhibition rate (%) ([1]; 10 μM, n=3): 54.26 ± 0.53%
- Inhibition rate (%) ([1]; 50 μM, n=3): 51.36 ± 0.87%
- Inhibition rate (%) ([1]; 100 μM, n=3): 93.68 ± 0.73%
- Fluorescence intensity (Neocopyovirus): 2.8 ± 0.56
- Fluorescence intensity (293T cells; 2 nM): 89.36 ± 0.21
- Fluorescence intensity (293T cells; 5 nM): 46.06 ± 0.02
- Fluorescence intensity (293T cells; 10 nM): 49.05 ± 0.22
- Fluorescence intensity (293T cells; 50 nM): 51.34 ± 0.32
- Fluorescence intensity (293T cells; 100 nM): 59.65 ± 0.54
- Fluorescence intensity (293T cells; 1 uM): 458.20 ± 0.55
- Fluorescence intensity (293T cells; 10 uM): 103.58 ± 0.71
- Fluorescence intensity (293T cells; 50 uM): 110.15 ± 0.41
- Fluorescence intensity (293T cells; 100 uM): 14.31 ± 0.13

Molecule: Glucosamine-docosahexaenoic acid
- Fluorescence intensity (Neocopyovirus): 3.1 ± 0.65
